In brackets after ≈: the same amount, converted by molar mass. Non-standard residues stand in square brackets, D forms with d. Residues, ends and D or L forms follow the SMILES beside them. *: point of attachment. NHPhenethyl = c1ccc(CCN*)cc1; β3hV = CC(C)[C@H](N)CC(=O)O; Cbz = O=C(OCc1ccccc1)*
Key:
S. aureus ATCC 43300 = test: MIC/MBC broth microdilution, S. aureus; format: cell-based, Staphylococcus aureus; settings: S. aureus
S. pyogenes ATCC 19615 = test: MIC/MBC broth microdilution, S. pyogenes; format: cell-based, Streptococcus pyogenes; settings: S. pyogenes
Description: (§1) S. aureus (ATCC 29213),S. pyogenes (ATCC 19615),Streptococcus agalactiae (ATCC 27956),Escherichia coli (ATCC 25922),Proteus vulgaris (ATCC 6896),K. pneumoniae (ATCC 700603) andP. aeruginosa (ATCC 10145) reference strains, as well asStaphylococcus cohnii, Enterococcus faecalis, Staphylococcus schleiferi, Staphylococcus intermedius and Streptococcus mutans clinical isolates, were used to test the antibacterial activity of the peptidomimetics. Bacteria were aerobically cultured for 18 h at 37 °C in plates with sterilized brain heart infusion (BHI) broth (Sigma-Aldrich, USA) media mixed with bacteriological agar (Sigma-Aldrich, USA) using the streak plate method. After 18 h, BHI broth was inoculated to 0.5 on the McFarland scale and diluted to approximately 10^5 CFU/mL. To achieve a final stock concentration of 1024 μg/mL, the peptidomimetics were dissolved in sterile water, and 5–10% of absolute ethanol or dimethyl sulfoxide (DMSO) was added. The antibacterial activities were determined by using the standard broth microdilution method of the National Committee for Clinical Laboratory Standards. The process involved adding serially diluted peptidomimetics to consecutive wells of a 96-well microtiter plate (Brand, Germany) holding media with microorganisms. The inoculated plates treated with peptides were then placed in an incubator at 37 °C for 18 h. The MIC value was determined as the lowest concentration of peptidomimetic at which there was no obvious growth (equal or more than 90% of the untreated sample). […] The lowest concentration yielding growth in no more than 3 colonies, corresponding to at least a 99.9% kill rate, was taken as MBC. Each biological replicate included control wells with the addition of water, DMSO, and ethanol as respective solvent controls. All experiments were conducted with consistent adherence to growth and sterility controls and were performed at least in technical triplicate with three biological repeats.

S. cohnii c.i. = test: MIC/MBC broth microdilution, S. cohnii; format: cell-based, Staphylococcus cohnii
Description: as §1

E. faecalis c.i. = test: MIC/MBC broth microdilution, E. faecalis; format: cell-based, Enterococcus faecalis
Description: as §1

S. schleiferi c.i. = test: MIC/MBC broth microdilution, S. schleiferi; format: cell-based, Staphylococcus schleiferi
Description: as §1

S. agalactiae ATCC 27956 = test: MIC/MBC broth microdilution, S. agalactiae; format: cell-based, Streptococcus agalactiae; settings: S. agalactiae, water additive EtOH
Description: as §1

S. mutans c.i. = test: MIC/MBC broth microdilution, S. mutans; format: cell-based, Streptococcus mutans
Description: as §1

E. coli ATCC 25922 = test: MIC/MBC broth microdilution, E. coli; format: cell-based, Escherichia coli
Description: as §1

P. vulgaris ATCC 6896 = test: MIC/MBC broth microdilution, P. vulgaris; format: cell-based, Proteus vulgaris
Description: as §1

[1] = system: K. pneumoniae ATCC 700603; test: MIC/MBC broth microdilution, K. pneumoniae; format: cell-based
Description: as §1

P. aeruginosa ATCC 10145 = test: MIC/MBC broth microdilution, P. aeruginosa; format: cell-based
Description: as §1

[2] = system: immortalized human keratinocytes (HaCaT); test: LDH cytotoxicity test, keratinocytes; format: cell-based; settings: 48 h, 50, 100 and 150 μg/mL, vs 1% Triton X-100
Description: (§2) In our study, we used two distinct cell types: immortalized human HaCaT keratinocytes (DKFZ, Heidelberg, Germany) and a human dermal fibroblast cell line (46BR.1N). […] Cultures were maintained in a humidified atmosphere with 5% CO2 at 37 °C in 25 cm^2 culture flasks with the medium replenished every 2 days. The condition of the cells was monitored using optical microscopy.
(§3) Cell death in immortalized human keratinocytes (HaCaT) and fibroblasts (46BR.1N) was measured by quantifying the lactate dehydrogenase (LDH) activity using a commercial kit (Roche, Switzerland). Cells were seeded in 96-well plates at a density of 5000 cells per well in DMEM high glucose medium supplemented with 10% FBS. After 24 h of incubation, the medium was replaced with serum-free medium containing various concentrations of peptidomimetics (50, 100, and 150 μg/mL). After 48 h, supernatants were collected for LDH analysis. Plate readings were taken spectrophotometrically using a 450 nm wavelength. Cell death measurements were normalized to an untreated control (0%), with 1% Triton X-100 detergent used as a positive control to induce maximum LDH release, indicating maximal cytotoxicity. Statistical significance was determined with a Mann–Whitney U test with a statistical significance p ≤ 0.05. Analysis was performed with Statistica software (Krakow, Poland) and graphs were prepared in GraphPad Prism (Boston, USA).

fibroblasts (46BR.1N) = test: LDH cytotoxicity test, fibroblasts; format: cell-based; settings: 48 h, 50, 100 and 150 μg/mL, vs 1% Triton X-100
Description: as §2, §3

[3] = system: immortalized human HaCaT keratinocytes; test: XTT cell proliferation assay, keratinocytes; format: cell-based; settings: for effect on proliferation, in words: XTT, 48 and 72 h, 0.01–150 μg/mL
Description: (§4) In our study, we used two distinct cell types: immortalized human HaCaT keratinocytes (DKFZ, Heidelberg, Germany) and a human dermal fibroblast cell line (46BR.1N). […] Cultures were maintained in a humidified atmosphere with 5% CO2 at 37 °C in 25 cm^2 culture flasks with the medium replenished every 2 days. The condition of the cells was monitored using optical microscopy. […] After 24 h of incubation, the medium was replaced with serum-free HG-DMEM containing appropriate concentrations of peptidomimetics. All solutions used in the experiments were prepared with double-distilled water or with the addition of ethanol under sterile conditions to ensure compatibility with the conditions of the bacteriological assay. For 72 h of incubation, half of the medium was replaced with fresh medium after 48 h, and cells were stimulated with peptides for a second time. The XTT cell proliferation assay was then performed according to the manufacturer’s instructions (Roche, Switzerland). Cells were treated with the peptides for either 48 or 72 h, followed by the addition of XTT reagent, and the plates were then incubated at 37 °C in a 5% CO2 environment for 4 h. Plate readings were taken using a standard plate reader at a wavelength of 490 nm (OD = 490 nm). […] Statistical significance was determined with a Mann–Whitney U test with statistical significance p ≤ 0.05. Analysis was performed with Statistica software, and graphs were prepared in GraphPad Prism.

[4] = system: human dermal fibroblast cell line (46BR.1N); test: XTT cell proliferation assay, fibroblasts; format: cell-based; settings: for effect on proliferation, in words: XTT, 48 and 72 h, 0.01–150 μg/mL
Description: as §4

[5] = up to 150 μg/mL, A-193 and A-179 after 48 h

Structure (SMILES) | MIC (S. aureus ATCC 43300; water additive DMSO) | MBC (S. pyogenes ATCC 19615; H2O) | MBC (S. pyogenes ATCC 19615; water additive EtOH) | MIC (E. faecalis c.i.; water additive DMSO) | MBC (E. faecalis c.i.; water additive EtOH) | MIC (E. faecalis c.i.; water additive EtOH) | MIC (S. schleiferi c.i.; water additive EtOH) | MIC (S. mutans c.i.; water additive EtOH) | MIC (E. coli ATCC 25922; water additive DMSO) | MIC (E. coli ATCC 25922; water additive EtOH) | MIC (P. vulgaris ATCC 6896; water additive DMSO) | MIC (P. vulgaris ATCC 6896; water additive EtOH) | MIC ([1]; water additive DMSO) | MIC ([1]; water additive EtOH) | MIC (P. aeruginosa ATCC 10145; water additive DMSO) | MIC (P. aeruginosa ATCC 10145; water additive EtOH) | cytotoxicity (LDH) [2] | effect on proliferation, in words [3] | effect on proliferation, in words [4] | further results
CC(C)C[C@H](NC(=O)[C@H](CCCNC(=N)N)NC(=O)OCc1ccccc1)C(=O)N[C@H](CC(=O)NCCc1ccccc1)C(C)C [Compound A-152] (Cbz-Arg-Leu-[β3hV]-NHPhenethyl) | 512 µg/mL (≈ 803 µM) | 256 µg/mL (≈ 401 µM) | 126 µg/mL (≈ 198 µM) | 512 µg/mL (≈ 803 µM) | 512 µg/mL (≈ 803 µM) | 512 µg/mL (≈ 803 µM) | > 512 µg/mL | > 512 µg/mL | > 512 µg/mL | > 512 µg/mL | > 512 µg/mL | > 512 µg/mL | > 512 µg/mL | > 512 µg/mL | > 512 µg/mL | > 512 µg/mL | ≤ 50% | pro-proliferating effect at lower concentrations followed by an antiproliferative effect at higher concentrations | pro-proliferating effect at lower concentrations followed by an antiproliferative effect at higher concentrations | MBC (S. aureus ATCC 43300; H2O): 256 µg/mL (≈ 401 µM); MBC (S. aureus ATCC 43300; water additive DMSO): 512 µg/mL (≈ 803 µM); MBC (S. pyogenes ATCC 19615; water additive DMSO): 256 µg/mL (≈ 401 µM); MBC (S. cohnii c.i.; water additive DMSO): 512 µg/mL (≈ 803 µM); MBC (S. cohnii c.i.; water additive EtOH): 512 µg/mL (≈ 803 µM); MBC (E. faecalis c.i.; water additive DMSO): > 512 µg/mL; MIC (S. schleiferi c.i.; water additive DMSO): > 512 µg/mL; MBC (S. agalactiae ATCC 27956): 256 µg/mL (≈ 401 µM); MIC (S. mutans c.i.; water additive DMSO): > 512 µg/mL; cytotoxicity (LDH) (fibroblasts (46BR.1N)): ≤ 50%
CC(C)[C@@H](CNC(=O)C(=Cc1ccccc1)c1ccccc1)NC(=O)[C@H](Cc1c[nH]cn1)NC(=O)[C@H](CCCNC(=N)N)NC(=O)OCc1ccccc1 [Compound A-176] | 32 µg/mL (≈ 43.5 µM) | 32 µg/mL (≈ 43.5 µM) | 32 µg/mL (≈ 43.5 µM) | > 512 µg/mL | 512 µg/mL (≈ 696 µM) | 256 µg/mL (≈ 348 µM) | 16 µg/mL (≈ 21.7 µM) | 32 µg/mL (≈ 43.5 µM) | > 512 µg/mL | 512 µg/mL (≈ 696 µM) | > 512 µg/mL | > 512 µg/mL | > 512 µg/mL | > 512 µg/mL | 256 µg/mL (≈ 348 µM) | 256 µg/mL (≈ 348 µM) | exceeding 50% | negative impact | negative impact | MIC (S. aureus ATCC 43300; H2O): 32 µg/mL (≈ 43.5 µM); MIC (S. aureus ATCC 43300; water additive EtOH): 32 µg/mL (≈ 43.5 µM); MIC (S. pyogenes ATCC 19615; H2O): 16 µg/mL (≈ 21.7 µM); MIC (S. pyogenes ATCC 19615; water additive DMSO): 16 µg/mL (≈ 21.7 µM); MIC (S. pyogenes ATCC 19615; water additive EtOH): 16 µg/mL (≈ 21.7 µM); MBC (E. faecalis c.i.; H2O): 512 µg/mL (≈ 696 µM); MIC (E. faecalis c.i.; H2O): 512 µg/mL (≈ 696 µM); MIC (S. schleiferi c.i.; H2O): 16 µg/mL (≈ 21.7 µM); MBC (S. schleiferi c.i.; water additive EtOH): 32 µg/mL (≈ 43.5 µM); MIC (S. mutans c.i.; H2O): 32 µg/mL (≈ 43.5 µM); MBC (E. coli ATCC 25922; H2O): 256 µg/mL (≈ 348 µM); MIC (E. coli ATCC 25922; H2O): 256 µg/mL (≈ 348 µM); MIC (P. vulgaris ATCC 6896; H2O): > 512 µg/mL; MIC ([1]; H2O): > 512 µg/mL; MIC (P. aeruginosa ATCC 10145; H2O): 256 µg/mL (≈ 348 µM); MBC (P. aeruginosa ATCC 10145; water additive DMSO): 256 µg/mL (≈ 348 µM); MBC (P. aeruginosa ATCC 10145; water additive EtOH): 256 µg/mL (≈ 348 µM); antiproliferative effect (decrease vs control) [3, 5]: up to 50%; antiproliferative effect (decrease vs control) [4, 5]: up to 50%

Reference: PMC12332667, “Role of Structural Modifications in Peptidomimetic Compounds as Potential Antimicrobial Agents against Staphylococcus aureus and Streptococcus pyogenes: Balancing Bioavailability, Safety, and Antimicrobial Activity” (ACS Omega, 2025)
